# Laboratory results taken from ChEMBL document CHEMBL1949647, “Design, synthesis and biological evaluation of peptidyl-vinylaminophosphonates as novel cysteine protease inhibitors” (Bioorg Med Chem, 2011).
# Peptide text beside a SMILES is read from it. * marks the point of attachment. Cbz = O=C(OCc1ccccc1)*
# Biological target: Cathepsin B (Homo sapiens, UniProt P07858)
# Test: Inhibition of cathepsin B
row,Ki,Compound
1,0.0005 mM,CC[C@H](C)[C@H](NC(=O)[C@H](CCCNC(=N)N)NC(=O)OCc1ccccc1)C(=O)N[C@H](/C=N/NC(N)=O)Cc1ccccc1
2,174 mM,C[C@H](NC(=O)OCc1ccccc1)C(=O)N[C@@H](Cc1ccccc1)C(=O)OCF
3,5.61 mM,O=C(O)CNC(=O)[C@H](Cc1ccccc1)NC(=O)OCc1ccccc1 (Cbz-Phe-Gly-OH)
4,13.5 mM,COC(=O)CNC(=O)[C@H](Cc1ccccc1)NC(=O)OCc1ccccc1 (Cbz-Phe-Gly-OMe)

# Biological target: T1, Papain (Carica papaya, UniProt P00784)
# T1 sequence (P00784 whole entry): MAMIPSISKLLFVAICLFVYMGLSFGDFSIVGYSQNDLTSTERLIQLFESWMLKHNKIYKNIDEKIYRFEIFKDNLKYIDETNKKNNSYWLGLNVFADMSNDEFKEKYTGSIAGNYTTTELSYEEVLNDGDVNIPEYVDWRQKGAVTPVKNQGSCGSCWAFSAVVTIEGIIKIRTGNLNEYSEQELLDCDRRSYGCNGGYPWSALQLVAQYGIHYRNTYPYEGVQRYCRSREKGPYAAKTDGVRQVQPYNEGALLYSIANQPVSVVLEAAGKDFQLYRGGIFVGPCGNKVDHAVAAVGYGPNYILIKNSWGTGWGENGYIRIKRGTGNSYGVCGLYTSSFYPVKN
# Test: Inhibition of papaya papain using methyl hippurate as substrate by titrimetric method
row,Ki,Compound
1,6.89 mM,COC(=O)N[C@@H](Cc1ccccc1)C(=O)NCC#N

# Biological target: T1, Papain
# Test: Inhibition of papaya papain
row,Ki,Compound
1,2.3e-05 mM,CC[C@H](C)[C@H](NC(=O)[C@H](CCCNC(=N)N)NC(=O)OCc1ccccc1)C(=O)N[C@H](/C=N/NC(N)=O)Cc1ccccc1
2,19.6 mM,O=C(O)CNC(=O)[C@H](Cc1ccccc1)NC(=O)OCc1ccccc1 (Cbz-Phe-Gly-OH)
3,2.7 mM,COC(=O)CNC(=O)[C@H](Cc1ccccc1)NC(=O)OCc1ccccc1 (Cbz-Phe-Gly-OMe)
4,0.265 mM,CC(C)[C@H](NC(=O)[C@H](CCCNC(=N)N)NC(=O)N[C@@H](Cc1ccccc1)C(=O)O)C(=O)N[C@H](C=O)CCCNC(=N)N [ANTIPAIN]

# Biological target: T1, Papain
# Test: Inhibition of papaya papain using BAPNA as substrate assessed as p-nitroaniline release by spectrophotometric analysis
row,Compound,IC50
1,CCOP(=O)(/C=C/C(NC(=O)[C@H](Cc1ccccc1)NC(=O)OCc1ccccc1)c1ccccc1)OCC (mixture of isomers),30 µM
2,CCOP(=O)(/C=C/C(NC(=O)[C@H](Cc1ccc(O)cc1)NC(=O)OCc1ccccc1)c1ccccc1)OCC (mixture of isomers),54 µM
3,CCOP(=O)(/C=C/C(NC(=O)[C@H](Cc1c[nH]c2ccccc12)NC(=O)OCc1ccccc1)c1ccccc1)OCC (mixture of isomers),> 200 µM
4,CCOP(=O)(/C=C/C(NC(=O)[C@H](Cc1ccccc1)NC(=O)[C@H](Cc1ccccc1)NC(=O)OC(C)(C)C)c1ccccc1)OCC (mixture of isomers),83 µM
5,CCOP(=O)(/C=C/C(NC(=O)[C@H](Cc1ccccc1)NC(=O)[C@H](Cc1ccccc1)NC(=O)OCc1ccccc1)c1ccccc1)OCC (mixture of isomers),125 µM

# Further lines, results first:
row,IC50,Compound
1,> 200 µM,CCOP(=O)(/C=C/C(NC(=O)[C@H](CC(C)C)NC(=O)OCc1ccccc1)c1ccccc1)OCC (mixture of isomers)
2,40 µM,CCOP(=O)(/C=C/C(NC(=O)[C@H](Cc1ccccc1)NC(=O)OC(C)(C)C)c1ccccc1)OCC (mixture of isomers)
3,> 200 µM,CCOP(=O)(/C=C/C(NC(=O)[C@H](CC(C)C)NC(=O)OC(C)(C)C)c1ccccc1)OCC (mixture of isomers)
4,> 200 µM,CCOP(=O)(/C=C/C(NC(=O)[C@H](CC(C)C)NC(=O)OCC1c2ccccc2-c2ccccc21)c1ccccc1)OCC (mixture of isomers)
5,132 µM,CCOP(=O)(/C=C/C(NC(=O)[C@H](CC(C)C)NC(=O)[C@H](Cc1ccccc1)NC(=O)OC(C)(C)C)c1ccccc1)OCC (mixture of isomers)
